Patent publication EP0745595A1, “3-(3-Aryloxyphenyl)-1-(substituted methyl)-s-triazine-2,4,6-oxo or thiotrione herbicidal agents” (American Cyanamid Company, priority 1995, dated 1996)

Experiments:
Type in all cases: in vivo
[1] = system: SAGITTARIA PYGMAEA; test: Preemergence evaluation in the presence of transplanted rice under flooded paddy conditions (Example 43), SAGPY (Arrowhead (Pygmaea)); parameters: key: visual rating on a 0-9 scale, compared with control; settings: applied three days after sowing, 25 to 30 days after treatment
Description: (§1) Results of herbicide evaluation are expressed on a rating scale (0-9). The scale is based upon a visual observation of plant stand, vigor, malformation, size, chlorosis and overall plant appearance as compared with a control.
(§2) In this example, Deluvian paddy soil (Toyokawa paddy soil) is placed in plastic pots, 100cm^2 x 9 cm in depth. Water is added to the level of the soil surface in the pot and the mixture is paddled 3 cm in depth.
(§3) Pots are then variously sown with monocotyledenous weed seeds and tubers at 0-2 cm in soil depth, as well as transplanted rice plants at the 2.5 leaf stage. The rice plants are transplanted at about 3 cm soil depth. Water is then added to all of the pots to 3 cm deep and kept at a depth of 3 cm for the duration of the test. Test compounds are applied in the manner described in Example 42 three days after transplanting the rice plants and sowing the weed seeds and tubers. The pots are then placed on greenhouse benches and cared for in the conventional manner. Tests are examined at 25 to 30 days after treatment and rated according to the rating system provided in Example 40. The compounds evaluated are reported by compound number given in Example 40.

[2] = system: ORYZA SATIVA, L. CV. KOSHIHIKARI; test: Post-transplant rice evaluation under flooded paddy conditions (Example 43), ORYSAK (Rice, Koshihikari); parameters: key: visual rating on a 0-9 scale, compared with control; settings: applied three days after transplanting rice, 25 to 30 days after treatment
Description: as §1, §2, §3

[3] = system: SCIRPUS JUNCOIDES; test: Preemergence evaluation in the presence of transplanted rice under flooded paddy conditions (Example 43), SCPJU (Bulrush, Japanese); parameters: key: visual rating on a 0-9 scale, compared with control; settings: applied three days after sowing, 25 to 30 days after treatment
Description: as §1, §2, §3

[4] = system: ECHINOCHLOA CRUS-GALLI; test: Preemergence evaluation in the presence of transplanted rice under flooded paddy conditions (Example 43), ECHCG (Barnyard Grass); parameters: key: visual rating on a 0-9 scale, compared with control; settings: applied three days after sowing, 25 to 30 days after treatment
Description: as §1, §2, §3

[5] = system: CYPERUS DIFFORMIS; test: Preemergence evaluation in the presence of transplanted rice under flooded paddy conditions (Example 43), CYPDI (Flatsedge, smallflower); parameters: key: visual rating on a 0-9 scale, compared with control; settings: applied three days after sowing, 25 to 30 days after treatment
Description: as §1, §2, §3

[6] = system: […]; test: Preemergence evaluation in the presence of transplanted rice under flooded paddy conditions (Example 43), MOOVA (Monochoria); settings: applied three days after sowing, 25 to 30 days after treatment
Description: as §1, §2, §3

[7] = system: CYPERUS SEROTINUS; test: Preemergence evaluation in the presence of transplanted rice under flooded paddy conditions (Example 43), CYPSE (Flatsedge, perennial); parameters: key: 0-9 visual rating scale vs. untreated control; settings: applied three days after sowing, 25 to 30 days after treatment
Description: as §1, §2, §3

[8] = system: ECHINOCHLOA CRUS-GALLI, (L) BEAU; test: Preemergence herbicidal evaluation, ECHCG (Barnyardgrass); settings: four to five weeks after treatment
Method in brief: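 In this preemergence herbicide test, cups holding seeds of ECHCG sown in potting soil over roughly one inch of soil were treated and then grown under conventional greenhouse care. Tests were ended four to five weeks after treatment, and injury was scored 0-9 from stand, vigor, malformation, size, chlorosis and overall appearance relative to a control.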

[9] = system: TRITICUM AESTIVUM, CV. APOLLO; test: Preemergence herbicidal evaluation, TRZAWO (Wheat, Winter, CV. APOLLO); settings: four to five weeks after treatment
Method in brief: (§4)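 First, seeds in potting soil are sown atop soil in cups. Next, the surface is sprayed with test compound in aqueous acetone at roughly 0.125 to 0.50 kg per hectare. After four to five weeks of greenhouse care, each cup is scored 0-9 against a control.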

[10] = system: ABUTILON THEOPHRASTI, MEDIC.; test: Preemergence herbicidal evaluation, ABUTH (Velvetleaf); settings: four to five weeks after treatment
Method in brief: as §4

COC(=O)Cn1c(=O)n(C)c(=O)n(-c2cc(Oc3c(F)cc(C(F)(F)F)cc3Cl)ccc2Br)c1=O [Compound 2, Methyl 3-{2-bromo-5-[(2-chloro-α,α,α,6-tetrafluoro-p-tolyl)oxy]phenyl}tetrahydro-5-methyl-2,4,6-trioxo-s-triazine-1(2H)-acetate]
Herbicidal effect rating, SAGPY ([1]; 0.025 kg/ha): 3.0
Herbicidal effect rating, SAGPY ([1]; 0.050 kg/ha): 7.0
Herbicidal effect rating, SAGPY ([1]; 0.100 kg/ha): 9.0
Herbicidal effect rating, SAGPY ([1]; 0.250 kg/ha): 9.0
Herbicidal effect rating, ORYSAK ([2]; 0.025 kg/ha): 1.0
Herbicidal effect rating, ORYSAK ([2]; 0.050 kg/ha): 3.0
Herbicidal effect rating, ORYSAK ([2]; 0.100 kg/ha): 5.0
Herbicidal effect rating, ORYSAK ([2]; 0.250 kg/ha): 9.0
Herbicidal effect rating, SCPJU ([3]; 0.025 kg/ha): 8.0
Herbicidal effect rating, SCPJU ([3]; 0.050 kg/ha): 9.0
Herbicidal effect rating, SCPJU ([3]; 0.100 kg/ha): 9.0
Herbicidal effect rating, SCPJU ([3]; 0.250 kg/ha): 9.0
Herbicidal effect rating, ECHCG ([4]; 0.025 kg/ha): 9.0
Herbicidal effect rating, ECHCG ([4]; 0.050 kg/ha): 9.0
Herbicidal effect rating, ECHCG ([4]; 0.100 kg/ha): 9.0
Herbicidal effect rating, ECHCG ([4]; 0.250 kg/ha): 9.0
Herbicidal effect rating, CYPDI ([5]; 0.025 kg/ha): 9.0
Herbicidal effect rating, CYPDI ([5]; 0.050 kg/ha): 9.0
Herbicidal effect rating, CYPDI ([5]; 0.100 kg/ha): 9.0
Herbicidal effect rating, CYPDI ([5]; 0.250 kg/ha): 9.0
Herbicidal effect rating, MOOVA ([6]; 0.025 kg/ha): 9.0
Herbicidal effect rating, MOOVA ([6]; 0.050 kg/ha): 9.0
Herbicidal effect rating, MOOVA ([6]; 0.100 kg/ha): 9.0
Herbicidal effect rating, MOOVA ([6]; 0.250 kg/ha): 9.0
Herbicidal effect rating, CYPSE ([7]; 0.025 kg/ha): 4.0
Herbicidal effect rating, CYPSE ([7]; 0.050 kg/ha): 7.0
Herbicidal effect rating, CYPSE ([7]; 0.100 kg/ha): 9.0
Herbicidal effect rating, CYPSE ([7]; 0.250 kg/ha): 9.0

COC(=O)Cn1c(=O)n(C)c(=O)n(-c2cc(Oc3ccc(C(F)(F)F)cc3Cl)ccc2[N+](=O)[O-])c1=O [Compound 3, Methyl 3-{5-[(2-chloro-α,α,α-trifluoro-p-tolyl)oxy]-2-nitrophenyl}tetrahydro-5-methyl-2,4,6-trioxo-s-triazine-1(2H)-acetate]
Herbicidal effect rating, SAGPY ([1]; 0.025 kg/ha): 0.0
Herbicidal effect rating, SAGPY ([1]; 0.050 kg/ha): 0.0
Herbicidal effect rating, SAGPY ([1]; 0.100 kg/ha): 1.0
Herbicidal effect rating, SAGPY ([1]; 0.250 kg/ha): 3.0
Herbicidal effect rating, ORYSAK ([2]; 0.025 kg/ha): 0.0
Herbicidal effect rating, ORYSAK ([2]; 0.050 kg/ha): 1.0
Herbicidal effect rating, ORYSAK ([2]; 0.100 kg/ha): 5.0
Herbicidal effect rating, ORYSAK ([2]; 0.250 kg/ha): 8.0
Herbicidal effect rating, SCPJU ([3]; 0.025 kg/ha): 5.0
Herbicidal effect rating, SCPJU ([3]; 0.050 kg/ha): 7.0
Herbicidal effect rating, SCPJU ([3]; 0.100 kg/ha): 9.0
Herbicidal effect rating, SCPJU ([3]; 0.250 kg/ha): 9.0
Herbicidal effect rating, ECHCG ([4]; 0.025 kg/ha): 8.0
Herbicidal effect rating, ECHCG ([4]; 0.050 kg/ha): 9.0
Herbicidal effect rating, ECHCG ([4]; 0.100 kg/ha): 9.0
Herbicidal effect rating, ECHCG ([4]; 0.250 kg/ha): 9.0
Herbicidal effect rating, CYPDI ([5]; 0.025 kg/ha): 5.0
Herbicidal effect rating, CYPDI ([5]; 0.050 kg/ha): 8.0
Herbicidal effect rating, CYPDI ([5]; 0.100 kg/ha): 9.0
Herbicidal effect rating, CYPDI ([5]; 0.250 kg/ha): 9.0
Herbicidal effect rating, MOOVA ([6]; 0.025 kg/ha): 3.0
Herbicidal effect rating, MOOVA ([6]; 0.050 kg/ha): 5.0
Herbicidal effect rating, MOOVA ([6]; 0.100 kg/ha): 7.0
Herbicidal effect rating, MOOVA ([6]; 0.250 kg/ha): 9.0
Herbicidal effect rating, CYPSE ([7]; 0.025 kg/ha): 0.0
Herbicidal effect rating, CYPSE ([7]; 0.050 kg/ha): 5.0
Herbicidal effect rating, CYPSE ([7]; 0.100 kg/ha): 8.0
Herbicidal effect rating, CYPSE ([7]; 0.250 kg/ha): 9.0

COC(=O)Cn1c(=O)[nH]c(=O)n(-c2cc(Oc3ccc(C(F)(F)F)cc3Cl)ccc2[N+](=O)[O-])c1=O [Compound 8, Methyl 3-{5-[(2-chloro-α,α,α-trifluoro-p-tolyl)oxy]-2-nitrophenyl}tetrahydro-2,4,6-trioxo-s-triazine-1(2H)-acetate]
ECHCG rating ([8]; Rate 0.125 kg/ha): 0.0
ECHCG rating ([8]; Rate 0.250 kg/ha): 0.0
ECHCG rating ([8]; Rate 0.500 kg/ha): 0.0
Herbicidal effect rating, SAGPY ([1]; 0.032 kg/ha): 1.0
Herbicidal effect rating, SAGPY ([1]; 0.063 kg/ha): 3.0
Herbicidal effect rating, SAGPY ([1]; 0.125 kg/ha): 6.0
Herbicidal effect rating, SAGPY ([1]; 0.250 kg/ha): 8.0
Herbicidal effect rating, ORYSAK ([2]; 0.032 kg/ha): 2.0
Herbicidal effect rating, ORYSAK ([2]; 0.063 kg/ha): 3.0
Herbicidal effect rating, ORYSAK ([2]; 0.125 kg/ha): 2.0
Herbicidal effect rating, ORYSAK ([2]; 0.250 kg/ha): 6.0
TRZAWO rating ([9]; Rate 0.125 kg/ha): 3.0
TRZAWO rating ([9]; Rate 0.250 kg/ha): 3.0
TRZAWO rating ([9]; Rate 0.500 kg/ha): 3.0
Herbicidal effect rating, SCPJU ([3]; 0.032 kg/ha): 1.0
Herbicidal effect rating, SCPJU ([3]; 0.063 kg/ha): 5.0
Herbicidal effect rating, SCPJU ([3]; 0.125 kg/ha): 7.0
Herbicidal effect rating, SCPJU ([3]; 0.250 kg/ha): 8.0
Herbicidal effect rating, ECHCG ([4]; 0.032 kg/ha): 8.0
Herbicidal effect rating, ECHCG ([4]; 0.063 kg/ha): 8.0
Herbicidal effect rating, ECHCG ([4]; 0.125 kg/ha): 9.0
Herbicidal effect rating, ECHCG ([4]; 0.250 kg/ha): 9.0
ABUTH rating ([10]; Rate 0.125 kg/ha): 9.0
ABUTH rating ([10]; Rate 0.250 kg/ha): 9.0
ABUTH rating ([10]; Rate 0.500 kg/ha): 9.0
Herbicidal effect rating, CYPDI ([5]; 0.032 kg/ha): 7.0
Herbicidal effect rating, CYPDI ([5]; 0.063 kg/ha): 9.0
Herbicidal effect rating, CYPDI ([5]; 0.125 kg/ha): 9.0
Herbicidal effect rating, CYPDI ([5]; 0.250 kg/ha): 9.0
Herbicidal effect rating, MOOVA ([6]; 0.032 kg/ha): 7.0
Herbicidal effect rating, MOOVA ([6]; 0.063 kg/ha): 9.0
Herbicidal effect rating, MOOVA ([6]; 0.125 kg/ha): 9.0
Herbicidal effect rating, MOOVA ([6]; 0.250 kg/ha): 9.0
